Assay results published in paper PMC8197855, “Peptide/β-Peptoid Hybrids with Activity against Vancomycin-Resistant Enterococci: Influence of Hydrophobicity and Structural Features on Antibacterial and Hemolytic Properties” (International Journal of Molecular Sciences, 2021).
Values after ≈ are worked out from the molar mass of the structure shown.

How the values were obtained:
[1] = system: E. faecalis ATCC 29212; test: microbe, parasite or virus in culture; assay type: cell-based, Enterococcus faecalis; conditions: for Minimum inhibitory concentration: ATCC 29212, 24 h
Protocol: (§1) Overnight cultures of the enterococcal isolates were diluted in physiological saline (0.9% NaCl) to reach a turbidity of 0.5 McFarland units (Sensititre® nephelometer and the Sensititre® McFarland Standard). Bacterial suspensions were adjusted to 5 × 10^5 CFU/mL in MHB II or BHI broth containing two-fold dilutions of peptidomimetics or conventional antibiotics in a final volume of 100 µL. The plates were incubated for 24 h at 37 °C without shaking. […] All experiments were performed in three biological replicates. […]

[2] = system: E. faecium 2961; test: microbe, parasite or virus in culture; assay type: cell-based, Enterococcus faecium; conditions: for Minimum inhibitory concentration: 2961, 24 h
Protocol: (§2) Overnight cultures of the enterococcal isolates were diluted in physiological saline (0.9% NaCl) to reach a turbidity of 0.5 McFarland units (Sensititre® nephelometer and the Sensititre® McFarland Standard). Bacterial suspensions were adjusted to 5 × 10^5 CFU/mL in MHB II or BHI broth containing two-fold dilutions of peptidomimetics or conventional antibiotics in a final volume of 100 µL. The plates were incubated for 24 h at 37 °C without shaking. […] All experiments were performed in three biological replicates.

[3] = system: E. faecium 3978; test: microbe, parasite or virus in culture; assay type: cell-based, Enterococcus faecium; conditions: for Minimum inhibitory concentration: 3978, 24 h
Protocol: as §2

[4] = system: E. faecium 1798; test: microbe, parasite or virus in culture; assay type: cell-based, Enterococcus faecium; conditions: for Minimum inhibitory concentration: 1798, 24 h
Protocol: as §2

[5] = system: E. faecium D344R; test: microbe, parasite or virus in culture; assay type: cell-based, Enterococcus faecium; conditions: 24 h; for Minimum inhibitory concentration: E. faecium D344R, human clinical isolate
Protocol: as §2

[6] = system: E. faecalis 39002; test: microbe, parasite or virus in culture; assay type: cell-based, Enterococcus faecalis; conditions: for Minimum inhibitory concentration: 39002, 24 h
Protocol: as §2

[7] = system: E. faecalis 38262; test: microbe, parasite or virus in culture; assay type: cell-based, Enterococcus faecalis; conditions: for Minimum inhibitory concentration: 38262, 24 h
Protocol: as §2

[8] = system: E. faecium 2961; test: Broth checkerboard assay with conventional antibiotics; assay type: cell-based, Enterococcus faecium; conditions: antibiotic alone (-); BHI broth
Protocol: (§3) The strain culture preparation and final volume were the same as in the MIC assay. […] The plates were incubated for 24 h at 37 °C without shaking. […] All experiments were performed in two biological replicates.
(§4) To evaluate the effect of the combinations, the fractional inhibitory concentration index (FICI) was calculated for each combination according to:ΣFIC = FICA + FICB = (CA/MICA) + (CB/MICB)
(§5) The drug interaction was scored as follows: synergy—FICI ≤ 0.5; no interaction—FICI > 0.5–4; antagonism—FICI > 4 [40].

[9] = system: E. faecium 1798; test: as above; assay type: cell-based, Enterococcus faecium; conditions: antibiotic alone (-); BHI broth
Protocol: as §3, §4, §5

[10] = system: E. faecium ATCC 19434; test: as above; assay type: cell-based, Enterococcus faecium; conditions: antibiotic alone (-); BHI broth
Protocol: as §3, §4, §5

[11] = system: E. faecalis ATCC 29212; test: as above; assay type: cell-based, Enterococcus faecalis; conditions: antibiotic alone (-); BHI broth
Protocol: as §3, §4, §5

[12] = system: E. faecium ATCC 19434; test: microbe, parasite or virus in culture; assay type: cell-based, Enterococcus faecium; conditions: for Minimum inhibitory concentration: ATCC 19434, 24 h
Protocol: as §1

[13] = system: E. faecalis isolates; assay type: cell-based, Enterococcus faecalis; conditions: 24 h
Protocol: as §2

[14] = system: HepG2 cell line ATCC HB-8065; test: Effect on HepG2 cell viability (MTT assay); assay type: cell-based, human; conditions: 48 h
Protocol: The effect of peptidomimetics on mammalian cell viability was determined on the HepG2 cell line ATCC HB-8065. In brief, HepG2 cells were seeded into flat-bottom 96-well plates at a concentration of 5000 cells per well. The cells were incubated for 24 h in a humidified incubator (5% CO2, 37 °C). Subsequently, the medium was removed, and the cells were incubated for 48 h in a humidified incubator (5% CO2, 37 °C) with peptidomimetics in serial dilutions. An MTT assay was then performed; in brief, after incubation with the test compounds, the culture medium was removed and fresh medium with 0.2 mg/mL MTT was then added into each well. After incubation (3 h, 37 °C, 5% CO2), the medium with MTT was removed, and 200 μL dimethyl sulfoxide was added at once to each sample. The absorbance of MTT was measured using the spectrophotometer TECAN Infinite M1000 at 540 nm. The relative viability was calculated by using the formula:ODtreated cells × 100/ODcontrol cells
The IC50 values were calculated using the program Graph Pad Prism 5.0. For all compounds, the test range was 10–1280 μg/mL.

[15] = system: E. faecium isolates; assay type: cell-based, Enterococcus faecium; conditions: 24 h
Protocol: as §2

[16] = Hydrophobicity by analytical RP-HPLC (% MeCN at peak elution); assay type: physicochemical
Protocol: Water was filtered by using an Evoqua LaboStar PRO TWF Ultra Pure Water System prior to use in high-performance liquid chromatography (HPLC). The retention time for each peptidomimetic was determined by analytical HPLC using a Phenomenex Luna C18(2) HST column (100 mm × 3 mm; particle size: 2.5 μm; pore size: 100 Å) on a Shimadzu Prominence and Shimadzu Nexera system using an aqueous MeCN gradient with 0.1% trifluoroacetic acid (TFA) added (eluent A: 5:95 MeCN–H2O + 0.1% TFA; eluent B: 95:5 MeCN–H2O + 0.1% TFA); a flow rate of 0.5 mL/min was used. For the elution of peptidomimetics, a linear gradient of 0% to 60% B over 10 min was used with UV detection at λ = 220 nm. The percentage MeCN at peak elution was calculated from the retention time (tR) by using the following formula:%MeCN = [0.95 × 0.6 × tR/10 + 0.05 × (1 − 0.6 × tR/10)] × 100%

[17] = Hemolytic activity; assay type: cell-based, human; conditions: human, human red blood cells (washed, 1% suspension), 37 °C, 1% red blood cell suspension
Protocol: (§6) A suspension of hRBCs (Single-donor human red blood cells—washed; catalogue No. IPLA-W3 from Innovative researchTM) was washed three times with PBS buffer and centrifuged for 5 min at 2500 rpm. A two-fold serial dilution of compounds in PBS buffer was prepared. Plates (conical-bottomed 96-well plates) with 3 replicate wells per dilution, containing 1% red blood cell suspension, were prepared and dosed with the test compound to achieve a final concentration of 400 μg/mL in a total volume of 100 μL. The plates were incubated (37 °C) for 60 min with mild agitation, and then the cells were pelleted by centrifugation at 1500 rpm for 5 min. Then, the supernatants (50 μL) were transferred to a fresh 96-well plate, and then the concentration of hemoglobin was detected by measuring the OD at 405 nm. The OD of cells incubated with 1% SDS achieved 100% hemolysis, while the OD of cells incubated with PBS buffer achieved 0% hemolysis. The concentration tested was 400 μg/mL (only average values are stated in Table 3). The percent hemolysis was calculated by using the formula:Hemolysis(%) = 100 × [(Asample − Aneg.control)/(Apos. control − Aneg.control)]

[18] = system: human red blood cells; test: Hemolytic activity; assay type: cell-based; conditions: 60 min, 37 °C, 1% red blood cell suspension
Protocol: as §6

| SMILES | Minimum inhibitory concentration [1] [µg/mL] | Minimum inhibitory concentration [2] [µg/mL] | Minimum inhibitory concentration [3] [µg/mL] | Minimum inhibitory concentration [4] [µg/mL] | Minimum inhibitory concentration [5] [µg/mL] | Minimum inhibitory concentration [6] [µg/mL] | Minimum inhibitory concentration [7] [µg/mL] | HepG2 IC50 [14] [µg/mL] | Minimum inhibitory concentration [12] [µg/mL] | MIC (range or typical value) against E. faecium [15] [µg/mL] | Hydrophobicity, Luna C18(2) HST (0–60% B; 10 min), retention converted into % MeCN [16] [% MeCN] | hemolysis at 60 min, 400 µg/mL [17] [%] | other results |
| --- | --- | --- | --- | --- | --- | --- | --- | --- | --- | --- | --- | --- | --- |
| CN[C@H](CC(C)C)C(=O)N[C@H]1C(=O)N[C@@H](CC(N)=O)C(=O)N[C@H]2C(=O)N[C@H]3C(=O)N[C@H](C(=O)N[C@H](C(=O)O)c4cc(O)cc(O)c4-c4cc3ccc4O)[C@H](O)c3ccc(c(Cl)c3)Oc3cc2cc(c3O[C@@H]2O[C@H](CO)[C@@H](O)[C@H](O)[C@H]2O[C@H]2C[C@](C)(N)[C@H](O)[C@H](C)O2)Oc2ccc(cc2Cl)[C@H]1O [Vancomycin, vancomycin] |  |  |  |  |  |  |  |  |  |  |  |  | MIC ([1]; Enterococcus faecalis, ATCC29212, 24 h, read-out: Minimum inhibitory concentration): 2 to 4 µg/mL (≈ 1.38 to 2.76 µM); MIC ([2]; Enterococcus faecium, 2961, 24 h, read-out: Minimum inhibitory concentration): > 256 µg/mL; MIC ([3]; Enterococcus faecium, 3978, 24 h, read-out: Minimum inhibitory concentration): 16 µg/mL (≈ 11 µM); MIC ([4]; Enterococcus faecium, 1798, 24 h, read-out: Minimum inhibitory concentration): > 256 µg/mL; MIC ([5]; Enterococcus faecium, D344R, read-out: Minimum inhibitory concentration): 2 µg/mL (≈ 1.38 µM); MIC ([6]; Enterococcus faecalis, 39002, 24 h, read-out: Minimum inhibitory concentration): 1 µg/mL (≈ 0.69 µM); MIC ([7]; Enterococcus faecalis, 38262, 24 h, read-out: Minimum inhibitory concentration): 1 µg/mL (≈ 0.69 µM); MIC of antibiotic [8]: > 256 µg/mL; MIC of antibiotic [9]: > 256 µg/mL; MIC of antibiotic [10]: 1 to 2 µg/mL; MIC of antibiotic [11]: 2 to 4 µg/mL; MIC ([12]; Enterococcus faecium, ATCC19434, 24 h, read-out: Minimum inhibitory concentration): 1 to 2 µg/mL (≈ 0.69 to 1.38 µM) |
| C[C@@H](c1ccccc1)N(CCC(=O)N[C@@H](CCCCN)C(=O)N(CCC(=O)N[C@@H](CCCCNC(=N)N)C(=O)N(CCC(=O)N[C@@H](CCCCN)C(=O)N(CCC(=O)N[C@@H](CCCCNC(=N)N)C(=O)N(CCC(=O)N[C@@H](CCCCN)C(=O)N(CCC(N)=O)[C@@H](C)c1ccccc1)[C@@H](C)c1ccccc1)[C@@H](C)c1ccccc1)[C@@H](C)c1ccccc1)[C@@H](C)c1ccccc1)C(=O)[C@H](CCCCNC(=N)N)NC(=O)C=Cc1ccccc1 [Compound 6, Cinn-[hArg-βNspe-Lys-βNspe]3-NH2] | 16 (≈ 7.64 µM) | 4 (≈ 1.91 µM) | 4 (≈ 1.91 µM) | 4 (≈ 1.91 µM) | 4 (≈ 1.91 µM) | 16 (≈ 7.64 µM) | 16 (≈ 7.64 µM) | 42 | 8 (≈ 3.82 µM) | 4 to 8 | 45.9 | 15.7 | MIC (range) against E. faecalis [13]: 16 µg/mL (≈ 7.64 µM) |
| CC(=O)N[C@@H](CCCCNC(=N)N)C(=O)N(CCC(=O)N[C@@H](CCCCNC(=N)N)C(=O)N(CCC(=O)N[C@@H](CCCCNC(=N)N)C(=O)N(CCC(=O)N[C@@H](CCCCNC(=N)N)C(=O)N(CCC(=O)N[C@@H](CCCCNC(=N)N)C(=O)N(CCC(=O)N[C@@H](CCCCNC(=N)N)C(=O)N(CCC(=O)N[C@@H](CCCCNC(=N)N)C(=O)N(CCC(=O)N[C@@H](CCCCNC(=N)N)C(=O)N(CCC(N)=O)Cc1ccccc1)Cc1ccccc1)Cc1ccccc1)Cc1ccccc1)Cc1ccccc1)Cc1ccccc1)Cc1ccccc1)Cc1ccccc1 [Compound 1, Ac-[hArg-βNPhe]8-NH2] |  | 2 (≈ 0.738 µM) | 4 (≈ 1.48 µM) | 2 (≈ 0.738 µM) | 4 (≈ 1.48 µM) | 32 (≈ 11.8 µM) | 16 (≈ 5.9 µM) | 9 | 8 (≈ 2.95 µM) | 2 to 8 | 41.8 | ~6 | Hemolysis (at 400 µg/mL) [18]: 6.1% |
| C[C@@H](c1ccccc1)N(CCC(N)=O)C(=O)[C@H](CCCCN)NC(=O)CCN(C(=O)[C@H](CCCCNC(=N)N)NC(=O)CCN(C(=O)[C@H](CCCCN)NC(=O)CCN(C(=O)[C@H](CCCCNC(=N)N)NC(=O)CCN(C(=O)[C@H](CCCCN)NC(=O)CCN(C(=O)[C@H](CCCCNC(=N)N)NC(=O)CCN(C(=O)[C@H](CCCCN)NC(=O)CCN(C(=O)[C@@H](N)CCCCNC(=N)N)[C@@H](C)c1ccccc1)[C@@H](C)c1ccccc1)[C@@H](C)c1ccccc1)[C@@H](C)c1ccccc1)[C@@H](C)c1ccccc1)[C@@H](C)c1ccccc1)[C@@H](C)c1ccccc1 [Compound 4, H-[hArg-βNspe-Lys-βNspe]4-NH2] | >32 | 4 (≈ 1.53 µM) | 4 to 8 | 4 (≈ 1.53 µM) | 4 (≈ 1.53 µM) | 32 (≈ 12.2 µM) | 16 (≈ 6.12 µM) | 42 | 8 (≈ 3.06 µM) | 4 to 8 | 43.6 | 2.6 |  |
